Results reported in US20040006070A1, “Intraspinal continuous infusion of midazolam hydrochloride for the treatment of pain” (priority 2002, published 2004).
Values joined by “and” are separate entries in the source; they are usually repeats but may differ in a detail not shown here. Identical values can stand only once. “Also recorded” adds a separate entry of the source. Counter-ions that a name gives are not always drawn.

Legend:
Acute Pain Sheep Model = test: Mechanical stimulus device nociceptive testing (% MPE), acute pain sheep model; type: in vivo
Protocol: Open-label (known dose) trial: A trial with known midazolam doses was performed in the first 7 sheep. Animals were administered 3 mg/day (N=1), 5 mg/day (N=1), 10 mg/day (N=1), and 15 mg/day (N=4) for 43 days. These doses were chosen based upon previous intrathecal bolus dose studies in rats and humans, with conversion of from species to species based on cerebral spinal fluid (CSF) production rate and total CSF volume. Analgesic activity was assessed using a mechanical stimulus device which produces a stimulus of acute pain by application of force via a blunt needle applied to the shaved front foreleg of the animal. Force is applied with increasing pressure until the animal lifts its leg in response to the painful stimulus. To evaluate the analgesic effect of midazolam, response latencies were expressed as a percentage of the maximum possible effect, % MPE. The response latency is defined as follows: [formula]
A mechanical stimulus device was used for the pain stimulus. […] The force applied to the pin was measured by strain gauges that are incorporated into the device on the leg. The output from the strain gauges was recorded on a millivoltmeter in the control box. […] To compare the effects of midazolam, the data were accumulated over the testing period, and all response latencies were expressed as percentage of the maximum possible effect (MPE) where: [formula] […]

[1] = 1-5 mg/day, prior art; cited from earlier work
[2] = Toxicity testing of midazolam in the pig model, closed label (swine data); type: in vivo
Protocol: Another closed label study was performed in pigs. This study was performed in response to implications of possible species-related toxicity reported by researchers in Turkey and France (Malinovsky et al., 1991; Svensson et al., 1995; Erdine et al, 1999). […] Rats were administered single or multiple bolus doses for 20 days. Rabbits were administered bolus injections of 0.1% midazolam (pH 3.3) in 0.3 ml or preservative-free midazolam (pH 3.5) in 0.3 ml for one day or five consecutive days. To further assess the safety of spinally administered midazolam by continuous infusion in a second species, three pigs were instrumented with Medtronic SynchroMed® intrathecal infusion systems. Pigs were administered 15 mg/day (N=2), or saline control (N=1).

[3] = tested on: neuropathic pain model in the sheep; test: Neuropathic pain model in sheep, behavior monitoring (Observer 3.0) with visual analog pain score; type: in vivo; settings: for average pain score: sheep #980 Dudley
Source text: The neuropathic pain model in the sheep is created by placing four tight ligatures around the median, radial, or ulnar nerve (or a combination thereof) with 0-chromic gut suture. This method produces a chronic painful peripheral mononeuropathy which may be related to those conditions seen in humans with causalgia and reflex sympathetic dystrophy.
To evaluate animal behavior, the Observer 3.0 software (Noldus Information Technology, The Netherlands) was used to aid docmentation of a daily record of multiple traits. […] The behavior was then interpreted into a visual analog pain score (VAS), where 0 represents no pain and 100 represents severe pain.
Approximately three days prior to surgery each sheep will undergo a 15-minute baseline behavior evaluation. The observations made in this evaluation include, a computerized behavior software recording (the Observer) for 15minutes—gait monitoring—and recording of pain perception via visual analog scale-using the Observer. In some animals, recording of vital signs (blood pressure, heart rate, respirations per minute) will be performed using the Observer. Baseline values for pain perception are recorded via the mechanical stimulus device and/or behavior monitoring will also be performed at this time.
The sheep will be observed daily postoperatively. […] Observations of neuropathic pain development include changes in ambulation, alertness, appetite, urination, defecation, herding activity, body temperature and pain behaviors. This daily behavior is recorded utilizing the observer (an observational software system).

[4] = CSF, individual pigs, 15 mg, hydrochloride
[5] = individual pigs, Drug Dose 15 mg, hydrochloride
[6] = pigs, 15 mg/day continuous intrathecal infusion (N=2)
[7] = sheep Rowdy #819, 5 mg, daily values, hydrochloride, on May 29, 2001
[8] = sheep Rowdy #819, 5 mg, daily values, hydrochloride, on May 30, 2001

In the case of Cc1ncc2n1-c1ccc(Cl)cc1C(c1ccccc1F)=NC2 [Midazolam, midazolam hydrochloride], the pain relief (Acute Pain Sheep Model; closed-label study, 5 or 15 mg/day intrathecal) is given as “significant pain relief”, the pain relief (Acute Pain Sheep Model; open-label trial, all treated animals, 5-15 mg/day intrathecal for 43 days) is given as “significant pain relief” and the toxicities reported [1] is given as “Sedation and somnolence”. The “Routine Cultures Post Mortum” value ([2]; CSF, individual pigs, 15 mg, cell wraps 'No' / 'Growth') was “No”, the “Glucose Post Mortum” value [2, 4] was 11 mg/dL and 31 mg/dL and the “Gross Exam Post Mortum” value [2, 4] was “Colorless; also recorded: cloudy; also recorded: clear”. For the same compound, the “RBC Count Post Mortum” value [2, 4] was 1,350 /ul and 0 /ul, the “Total Protein Post Mortum” value [2, 4] was 73 mg/dL and 39 mg/dL and the “WBC Count Post Mortum” value [2, 4] was 888 µL⁻¹ and 117 µL⁻¹. For the same compound, the “clinical symptoms” value ([2]; individual pigs, Drug Dose 15 mg) was “none”, the “Final Weight” value [2, 5] was 147 and 170 and the “Histopathological Changes” value [2, 5] was “Most foreign body reaction in all the pigs; also recorded: The least foreign body reaction in all the pigs. The spinal reaction”. For the same compound, the “clinical or gross changes at necropsy” value [2, 6] was “No clinical or gross changes at necropsy were observed”, the “histology, toxicity related to the infusion” value [2, 6] was “no evidence of toxicity related to the midazolam infusion” and the “VAS score (0 no pain, 100 severe pain)” value ([3]; average on most days, intrathecal 3 to 6 mg/day, saline pretreatment 60 to 95) was “approximately 30”. For the same compound, the “VAS score, average” value ([3]; first sheep (Rowdy), 5 mg/day) was 30%, the “analgesia at higher doses” value ([3]; first sheep (Rowdy), after dose escalation to 15 mg/day) was “less analgesia” and the “analgesic activity against neuropathic pain” value ([3]; intrathecal up to 5 mg/day) was “had analgesic activity against neuropathic pain”. The average pain score ([3]; 3 mg/day for 13 days) was 32%, the average pain score ([3]; 6 mg/day, remainder of the study) was 35% and the average pain score ([3]; reinstituted 3 mg/day escalated to 5 mg/day over 7 days) was 65%. The “Other behavior: Observe operated leg” value ([3]; sheep Rowdy #819, 5 mg) was 0.56%, the Eating [3, 7] was 69.88% and the “Holding operated leg off the ground” value [3, 7] was 5.77%. The “Holding unoperated leg off the ground” value [3, 7] was 0.90%, the Walking [3, 7] was 5.07% and the Eating [3, 8] was 83.94%. For the same compound, the “Holding operated leg off the ground” value [3, 8] was 6.24%, the “Holding unoperated leg off the ground” value [3, 8] was 0.56% and the Walking [3, 8] was 4.22%. For the same compound, the “Other behavior: Eating lying down” value ([3]; sheep Rowdy #819, 10 mg) was 0.29%, the Eating ([3]; sheep Rowdy #819, 15 mg) was 3.29% and the “Holding operated leg off the ground” value ([3]; sheep Rowdy #819, 15 mg) was 8.55%. For the same compound, the “Holding unoperated leg off the ground” value ([3]; sheep Rowdy #819, 15 mg) was 0.81%, the “Other behavior: Bleating” value ([3]; sheep Rowdy #819, 15 mg) was 0.86% and the “Other behavior: Pulling wool” value ([3]; sheep Rowdy #819, 15 mg) was 1.11%. The “Other behavior: Standing ruminating” value ([3]; sheep Rowdy #819, 15 mg) was 70.19%, the “Pain Score” value ([3]; sheep Rowdy #819, 15 mg) was 40 and the Standing ([3]; sheep Rowdy #819, 15 mg) was 13.79%. For the same compound, the Walking ([3]; sheep Rowdy #819, 15 mg) was 1.40%.
